What is called inhibition is the relative decrease from the control value, in per cent.

What all share (test): Off-target binding screen
One assay addresses T1, 5-HT5A (Homo sapiens, UniProt P47898).
T1 construct: Eurofins Pharma Discovery Services (contract screen)
Particulars: read-out: % Inhibition of Control Specific Binding; for inhibition at 1 µM: 1000 nM.

Another assay deals with T2, α1B (Homo sapiens, UniProt P35368).
T2 construct: Eurofins Pharma Discovery Services (contract screen)
T2 sequence (P35368 1-520): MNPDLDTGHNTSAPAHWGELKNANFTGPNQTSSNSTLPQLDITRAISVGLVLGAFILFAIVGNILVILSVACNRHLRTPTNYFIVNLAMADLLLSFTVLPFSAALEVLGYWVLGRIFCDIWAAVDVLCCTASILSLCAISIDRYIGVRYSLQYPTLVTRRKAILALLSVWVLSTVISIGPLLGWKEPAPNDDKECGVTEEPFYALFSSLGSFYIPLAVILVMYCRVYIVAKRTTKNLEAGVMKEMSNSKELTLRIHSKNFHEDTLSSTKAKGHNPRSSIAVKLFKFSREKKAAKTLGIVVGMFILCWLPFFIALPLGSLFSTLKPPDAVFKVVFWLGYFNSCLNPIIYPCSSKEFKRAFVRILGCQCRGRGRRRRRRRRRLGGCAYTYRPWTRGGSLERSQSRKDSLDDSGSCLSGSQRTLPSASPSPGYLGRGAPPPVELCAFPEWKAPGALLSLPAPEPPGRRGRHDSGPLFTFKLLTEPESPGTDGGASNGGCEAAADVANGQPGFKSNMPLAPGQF
The note with it: read-out: % Inhibition of Control Specific Binding; for inhibition at 1 µM: 1000 nM; for inhibition at 0.01 µM: 10 nM; for inhibition at 0.1 µM: 100 nM.

The next assay has as its target T3, M1 (Homo sapiens, UniProt P11229).
T3 construct: Eurofins Pharma Discovery Services (contract assay)
T3 sequence (P11229 1-460): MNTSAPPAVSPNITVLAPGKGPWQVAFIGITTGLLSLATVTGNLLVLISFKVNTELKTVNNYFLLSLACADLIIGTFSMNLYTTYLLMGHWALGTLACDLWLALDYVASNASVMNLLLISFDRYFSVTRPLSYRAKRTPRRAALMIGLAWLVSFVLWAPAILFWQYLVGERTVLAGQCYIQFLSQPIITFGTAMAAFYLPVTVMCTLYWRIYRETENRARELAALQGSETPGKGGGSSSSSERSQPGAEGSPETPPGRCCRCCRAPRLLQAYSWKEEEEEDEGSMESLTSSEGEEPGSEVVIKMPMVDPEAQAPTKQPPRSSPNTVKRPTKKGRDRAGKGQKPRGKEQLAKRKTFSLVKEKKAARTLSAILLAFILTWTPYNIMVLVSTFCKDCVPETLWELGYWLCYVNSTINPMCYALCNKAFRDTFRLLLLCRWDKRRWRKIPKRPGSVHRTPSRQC
The note with it: 1000 nM, read-out: % Inhibition of Control Specific Binding.

Another assay concerns the target T4, M4 (Homo sapiens, UniProt P08173).
T4 construct: Eurofins Pharma Discovery Services (contract assay)
T4 sequence (P08173 1-479): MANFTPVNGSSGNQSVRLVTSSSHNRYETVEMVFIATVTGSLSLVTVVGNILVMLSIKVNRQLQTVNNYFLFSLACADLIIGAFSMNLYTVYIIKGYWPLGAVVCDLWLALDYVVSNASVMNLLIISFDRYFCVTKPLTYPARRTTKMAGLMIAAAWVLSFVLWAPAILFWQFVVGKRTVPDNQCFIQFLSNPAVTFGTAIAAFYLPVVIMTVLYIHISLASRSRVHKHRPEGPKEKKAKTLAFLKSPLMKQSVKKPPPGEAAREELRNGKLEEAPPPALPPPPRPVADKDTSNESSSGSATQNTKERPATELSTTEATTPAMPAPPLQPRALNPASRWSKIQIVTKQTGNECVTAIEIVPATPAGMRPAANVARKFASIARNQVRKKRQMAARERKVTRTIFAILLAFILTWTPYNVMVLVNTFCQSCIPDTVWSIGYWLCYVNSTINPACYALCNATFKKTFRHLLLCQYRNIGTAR
Particulars: 1000 nM, read-out: % Inhibition of Control Specific Binding.

In a further assay the target is T5, M5 (Homo sapiens, UniProt P08912).
T5 construct: Eurofins Pharma Discovery Services (contract assay)
T5 sequence (P08912 1-532): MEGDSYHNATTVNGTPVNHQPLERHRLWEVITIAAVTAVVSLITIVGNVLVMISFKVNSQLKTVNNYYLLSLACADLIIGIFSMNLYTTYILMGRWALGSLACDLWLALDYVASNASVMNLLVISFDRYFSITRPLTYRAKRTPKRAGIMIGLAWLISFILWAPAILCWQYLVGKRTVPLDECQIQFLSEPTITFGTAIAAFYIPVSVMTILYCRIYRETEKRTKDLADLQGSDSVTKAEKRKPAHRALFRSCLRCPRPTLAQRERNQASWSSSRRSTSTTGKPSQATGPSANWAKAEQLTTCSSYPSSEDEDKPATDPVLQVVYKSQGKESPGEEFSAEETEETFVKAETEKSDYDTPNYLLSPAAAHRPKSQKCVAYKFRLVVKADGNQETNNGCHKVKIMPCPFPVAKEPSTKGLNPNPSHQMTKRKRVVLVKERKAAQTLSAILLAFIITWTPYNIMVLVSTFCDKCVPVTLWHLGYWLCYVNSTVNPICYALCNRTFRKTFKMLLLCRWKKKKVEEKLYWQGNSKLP
The note with it: read-out: % Inhibition of Control Specific Binding; for inhibition at 1 µM: 1000 nM.

The target of a further assay is T6, κ (KOR) (Homo sapiens, UniProt P41145).
T6 construct: Eurofins Pharma Discovery Services (contract assay)
Particulars: 1000 nM, read-out: % Inhibition of Control Specific Binding.

The target in a further assay is T7, σ2 (Homo sapiens, UniProt Q5BJF2).
T7 construct: Eurofins Pharma Discovery Services (contract assay)
Particulars: read-out: % Inhibition of Control Specific Binding; for inhibition at 0.01 µM: 10 nM; for inhibition at 0.1 µM: 100 nM; for inhibition at 1 µM: 1000 nM.

The target in another assay is T8, GABAA1 (α1,β2,γ2) (Homo sapiens, UniProt P14867+P18507+P47870).
T8 construct: Eurofins Pharma Discovery Services (contract assay)
The note with it: 1000 nM, read-out: % Inhibition of Control Specific Binding.

The target of the next assay is T9, NET (Homo sapiens, UniProt P23975).
T9 construct: Eurofins Pharma Discovery Services
The note with it: 1000 nM, read-out: % Inhibition of Control Specific Binding.

For the next assay, the target named is T10, DAT (Homo sapiens, UniProt Q01959).
T10 construct: Eurofins Pharma Discovery Services
Particulars: 1000 nM, read-out: % Inhibition of Control Specific Binding.

Structures are written as SMILES.

T10 sequence (Q01959 whole entry, species assumed): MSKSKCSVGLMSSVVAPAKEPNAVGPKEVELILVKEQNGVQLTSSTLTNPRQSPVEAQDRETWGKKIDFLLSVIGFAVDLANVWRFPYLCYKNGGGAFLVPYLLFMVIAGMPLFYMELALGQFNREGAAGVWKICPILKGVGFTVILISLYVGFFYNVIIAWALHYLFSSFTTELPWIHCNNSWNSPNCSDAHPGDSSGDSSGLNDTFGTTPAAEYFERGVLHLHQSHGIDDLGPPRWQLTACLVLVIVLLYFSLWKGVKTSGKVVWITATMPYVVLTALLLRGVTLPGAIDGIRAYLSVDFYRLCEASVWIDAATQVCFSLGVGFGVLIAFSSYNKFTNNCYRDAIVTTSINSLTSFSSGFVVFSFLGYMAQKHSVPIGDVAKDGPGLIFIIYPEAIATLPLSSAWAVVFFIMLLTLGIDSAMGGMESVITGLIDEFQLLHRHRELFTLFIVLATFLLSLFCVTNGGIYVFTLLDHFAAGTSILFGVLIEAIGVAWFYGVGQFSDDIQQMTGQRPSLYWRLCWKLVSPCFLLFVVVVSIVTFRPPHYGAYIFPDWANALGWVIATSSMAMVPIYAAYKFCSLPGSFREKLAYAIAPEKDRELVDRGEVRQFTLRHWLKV
T8 sequence (P14867 28-456): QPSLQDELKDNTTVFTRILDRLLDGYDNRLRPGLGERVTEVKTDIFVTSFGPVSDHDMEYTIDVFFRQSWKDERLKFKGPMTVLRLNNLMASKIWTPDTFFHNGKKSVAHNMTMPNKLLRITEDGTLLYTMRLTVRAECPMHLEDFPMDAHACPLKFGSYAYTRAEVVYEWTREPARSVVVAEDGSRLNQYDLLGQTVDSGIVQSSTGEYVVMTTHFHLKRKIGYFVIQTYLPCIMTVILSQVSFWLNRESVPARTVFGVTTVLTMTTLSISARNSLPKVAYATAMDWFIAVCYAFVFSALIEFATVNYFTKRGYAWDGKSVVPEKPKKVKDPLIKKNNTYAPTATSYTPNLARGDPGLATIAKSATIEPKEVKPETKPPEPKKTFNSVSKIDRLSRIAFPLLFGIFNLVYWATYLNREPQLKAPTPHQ
T8 sequence (P47870 25-512 limits assumed): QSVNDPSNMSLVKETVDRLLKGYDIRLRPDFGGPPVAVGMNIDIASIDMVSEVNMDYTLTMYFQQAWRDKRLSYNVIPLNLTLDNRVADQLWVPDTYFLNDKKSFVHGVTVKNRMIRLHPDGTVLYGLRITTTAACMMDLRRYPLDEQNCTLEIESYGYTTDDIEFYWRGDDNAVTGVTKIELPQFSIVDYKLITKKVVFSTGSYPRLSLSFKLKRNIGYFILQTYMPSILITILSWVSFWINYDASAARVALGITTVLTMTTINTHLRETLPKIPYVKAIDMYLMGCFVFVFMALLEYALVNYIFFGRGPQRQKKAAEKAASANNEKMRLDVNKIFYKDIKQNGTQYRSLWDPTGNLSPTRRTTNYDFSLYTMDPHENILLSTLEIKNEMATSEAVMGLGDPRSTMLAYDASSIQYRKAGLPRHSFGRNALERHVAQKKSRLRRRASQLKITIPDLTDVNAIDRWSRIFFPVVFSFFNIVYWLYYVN
T8 sequence (P18507 40-475): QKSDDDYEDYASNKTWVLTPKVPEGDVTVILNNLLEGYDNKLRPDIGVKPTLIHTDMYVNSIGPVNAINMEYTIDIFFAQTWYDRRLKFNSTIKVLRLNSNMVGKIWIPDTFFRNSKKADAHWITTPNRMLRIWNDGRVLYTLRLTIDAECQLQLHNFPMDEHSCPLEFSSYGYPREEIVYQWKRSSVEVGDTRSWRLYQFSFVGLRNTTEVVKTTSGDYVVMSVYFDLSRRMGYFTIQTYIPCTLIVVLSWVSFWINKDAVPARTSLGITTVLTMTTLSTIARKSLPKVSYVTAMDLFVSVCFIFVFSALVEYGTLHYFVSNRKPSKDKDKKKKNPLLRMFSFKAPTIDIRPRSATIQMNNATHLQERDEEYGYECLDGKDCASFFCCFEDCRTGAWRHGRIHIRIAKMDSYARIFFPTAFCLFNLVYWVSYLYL
T1 sequence (P47898 whole entry, species assumed): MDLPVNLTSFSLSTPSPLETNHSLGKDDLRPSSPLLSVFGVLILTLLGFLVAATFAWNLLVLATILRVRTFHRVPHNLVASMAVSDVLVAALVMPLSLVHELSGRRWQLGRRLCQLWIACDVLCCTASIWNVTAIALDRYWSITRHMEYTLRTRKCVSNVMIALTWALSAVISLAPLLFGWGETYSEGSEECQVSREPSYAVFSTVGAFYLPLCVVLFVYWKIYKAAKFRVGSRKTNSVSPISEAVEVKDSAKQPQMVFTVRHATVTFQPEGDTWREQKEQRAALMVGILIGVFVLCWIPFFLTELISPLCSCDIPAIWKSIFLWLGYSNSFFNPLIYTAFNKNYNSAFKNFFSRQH
T6 sequence (P41145 whole entry): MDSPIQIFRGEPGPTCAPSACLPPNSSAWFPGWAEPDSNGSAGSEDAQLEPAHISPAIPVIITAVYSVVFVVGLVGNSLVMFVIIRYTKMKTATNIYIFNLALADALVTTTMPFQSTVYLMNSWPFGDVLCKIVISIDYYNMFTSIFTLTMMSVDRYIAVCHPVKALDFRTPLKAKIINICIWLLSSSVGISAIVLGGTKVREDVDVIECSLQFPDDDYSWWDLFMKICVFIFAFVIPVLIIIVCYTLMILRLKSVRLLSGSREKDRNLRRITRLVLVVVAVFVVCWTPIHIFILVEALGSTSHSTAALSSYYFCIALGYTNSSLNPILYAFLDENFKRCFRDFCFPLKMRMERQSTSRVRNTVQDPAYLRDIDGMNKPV
T9 sequence (P23975 whole entry): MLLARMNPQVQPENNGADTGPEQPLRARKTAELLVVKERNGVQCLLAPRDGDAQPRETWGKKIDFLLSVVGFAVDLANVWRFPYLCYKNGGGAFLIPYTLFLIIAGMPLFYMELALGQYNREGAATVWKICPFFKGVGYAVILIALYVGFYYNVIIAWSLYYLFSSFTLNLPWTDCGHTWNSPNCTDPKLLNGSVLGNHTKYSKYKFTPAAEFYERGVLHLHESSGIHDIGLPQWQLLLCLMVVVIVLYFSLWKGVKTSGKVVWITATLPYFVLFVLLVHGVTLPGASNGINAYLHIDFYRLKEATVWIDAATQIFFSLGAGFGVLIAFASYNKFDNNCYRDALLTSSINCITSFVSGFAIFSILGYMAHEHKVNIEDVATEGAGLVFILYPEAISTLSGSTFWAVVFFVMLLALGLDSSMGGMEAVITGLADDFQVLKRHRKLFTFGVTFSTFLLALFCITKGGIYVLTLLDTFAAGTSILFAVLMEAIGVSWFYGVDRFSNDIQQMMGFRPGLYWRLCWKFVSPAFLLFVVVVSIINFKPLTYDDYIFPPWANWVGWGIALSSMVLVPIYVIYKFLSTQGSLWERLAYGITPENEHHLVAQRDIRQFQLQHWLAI
T7 sequence (Q5BJF2 whole entry): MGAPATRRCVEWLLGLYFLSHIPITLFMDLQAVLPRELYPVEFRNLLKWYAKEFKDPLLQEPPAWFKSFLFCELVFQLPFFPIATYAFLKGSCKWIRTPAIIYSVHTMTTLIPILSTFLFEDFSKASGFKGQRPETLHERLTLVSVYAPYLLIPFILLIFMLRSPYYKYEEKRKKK

Regarding `O=C(c1ccc(F)c(Cl)c1)N1CCC(F)(CNCCOc2ccccc2)CC1` [Compound 3], the inhibition at 1 µM on 5-HT5A was -1%; on α1B, 32%; at M1, -2%; on M4, -9%; on M5 it was 3%; at κ (KOR) it was 4%. Besides, the inhibition at 1 µM at σ2 was 82%; on GABAA1 (α1,β2,γ2) it was -18%; at NET, -7%; at DAT it was -2%. Moreover, the inhibition at 0.01 µM at σ2 amounted to 11%. Moreover, the inhibition at 0.1 µM on σ2 came out at 33%.
Take `O=C(c1ccc(F)c(Cl)c1)N1CCC(F)(CNCCOc2cccc3[nH]ccc23)CC1` [Compound 56, (4-(((2-((1H-Indol-4-yl)oxy)ethyl)amino)methyl)-4-fluoropiperidin-1-yl)(3-chloro-4-fluorophenyl)methanone]: the inhibition at 0.01 µM on 5-HT5A (10 nM) is -18%; at α1B, -6%; at M5 (10 nM) it was 4%; at σ2, -1%. Besides, the inhibition at 0.1 µM is 12% on 5-HT5A (100 nM), 11% at α1B, -3% at M5 (100 nM) and 31% on σ2. Besides, the inhibition at 1 µM at 5-HT5A was 53%; at α1B, 69%; at M1 it was -10%; on M4, -10%; on M5, 54%; on κ (KOR), 6%. The inhibition at 1 µM on σ2 was 63%; on GABAA1 (α1,β2,γ2), -13%; on NET it was 5%; at DAT, 37%.
On to `CNc1ccccc1OCCNCC1(F)CCN(C(=O)c2ccc(F)c(Cl)c2)CC1` [Compound 44, (3-Chloro-4-fluorophenyl)(4-fluoro-4-(((2-(2-(methylamino)phenoxy)ethyl)amino)methyl)piperidin-1-yl)methanone], for which the inhibition at 1 µM is 2% on 5-HT5A; -6% on M1; -11% on M4; -1% at M5; -2% on κ (KOR); 52% on σ2. Further, the inhibition at 1 µM on GABAA1 (α1,β2,γ2) was -4%; on NET, 0%; on DAT, 0%. Further, the results for the inhibition at 0.01 µM at α1B and on σ2 were -3% and 2%, respectively. Also, the inhibition at 0.1 µM on α1B is -6%; at σ2 it was 10%.

For the origin of these results see publication PMC7586344, “Discovery of Novel pERK1/2- or β-Arrestin-Preferring 5-HT1A Receptor-Biased Agonists: Diversified Therapeutic-like versus Side Effect Profile” (Journal of Medicinal Chemistry, 2020).
